Assay results taken from patent publication US10899793B2, “Melanocortin ligands and methods of use thereof” (priority 2016, dated 2021).
Like-named read-outs stand apart in the source and are kept apart here. Blank lines part the entries; values can stand above or below the molecule they belong to. Square brackets hold non-standard residues; d marks the D form. Peptide text beside a SMILES is read from it. dPhe(4-I) = N[C@H](Cc1ccc(I)cc1)C(=O)O; 2Nal = N[C@@H](Cc1ccc2ccccc2c1)C(=O)O; d2Nal = N[C@H](Cc1ccc2ccccc2c1)C(=O)O; Bta = N[C@@H](Cc1csc2ccccc12)C(=O)O; Tic = O=C(O)[C@@H]1Cc2ccccc2CN1; Nle = CCCC[C@H](N)C(=O)O

What was measured:
mMC3R [1] = target: T1, mMC3R (Mus musculus, UniProt P33033); conditions: Schild analysis; for mMC3R Antagonist pA2 ± SEM: Table 1, pA2 = -Log(Ki), Full Agonist = full dose-response, No Activity = no shift in EC50; for mMC3R pA2: Table 5
T1 sequence (P33033 whole entry): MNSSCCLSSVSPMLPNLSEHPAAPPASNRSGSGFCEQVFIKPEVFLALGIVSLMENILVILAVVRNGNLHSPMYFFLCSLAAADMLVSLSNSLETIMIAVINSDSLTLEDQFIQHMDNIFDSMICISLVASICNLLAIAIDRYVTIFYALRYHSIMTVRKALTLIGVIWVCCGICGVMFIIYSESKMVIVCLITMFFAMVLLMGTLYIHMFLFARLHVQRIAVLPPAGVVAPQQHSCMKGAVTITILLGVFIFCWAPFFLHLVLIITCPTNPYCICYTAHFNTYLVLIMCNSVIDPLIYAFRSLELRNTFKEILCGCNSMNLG

mMC3R [2] = target: T1, mMC3R; experiment: 125I-NDP-MSH competitive binding assay at mMC3R; set-up: expressed in transfected cells; conditions: Table 3; vs Ac-His-DPhe-Arg-Trp-NH2; negative = more potent than control
Description: A typical experiment utilized a 12-well format. […] Pharm. Des.
The plates were incubated at 37° C. with 5% CO2 for 1 hour. Post incubation, the media was aspirated, each well was washed with 500 μL assay media, and cells were lysed with 500 μL of 0.1 M NaOH and 500 μL of 1% Triton x-100.
Following a 10-15 minute room temperature incubation, the cell lysate mixture was transferred to 12×75 mm polystyrene tubes and the radioactivity was quantified using a WIZARD^2 Automatic Gamma Counter (Perkin-Elmer). […] GraphPad, Inc), and dose-response curves in addition to the corresponding IC50 values were calculated by a non-linear regression method. Each reported value represents the mean and standard error of the mean (SEM) of, at least, two independent experiments each containing two experimental replicates.
Note each reported value represents the mean and standard error of the mean (SEM) of at least two independent experiments containing two experimental replicates.

mMC4R [3] = target: T2, mMC4R (Mus musculus, UniProt P56450); experiment: AlphaScreen cAMP agonist assay at mMC4R; conditions: for activation at 100 µM: read-out: mMC4R Agonist, percent of the NDP-MSH maximal positive control
T2 sequence (P56450 whole entry): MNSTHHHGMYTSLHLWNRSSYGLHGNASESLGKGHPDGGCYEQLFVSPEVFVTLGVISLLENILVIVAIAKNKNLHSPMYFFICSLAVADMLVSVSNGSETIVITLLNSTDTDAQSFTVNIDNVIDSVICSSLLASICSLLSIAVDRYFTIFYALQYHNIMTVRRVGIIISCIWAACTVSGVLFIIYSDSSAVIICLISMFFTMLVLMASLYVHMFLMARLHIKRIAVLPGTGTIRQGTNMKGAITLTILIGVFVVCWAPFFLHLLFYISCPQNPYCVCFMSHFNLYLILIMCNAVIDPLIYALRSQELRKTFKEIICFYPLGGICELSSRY

mMC4R [4] = target: T2, mMC4R; experiment: 125I-NDP-MSH competitive binding assay at mMC4R; conditions: Table 3; vs Ac-His-DPhe-Arg-Trp-NH2; negative = more potent than control
mMC4R [5] = target: T2, mMC4R; conditions: for mMC4R Antagonist pA2 ± SEM: Table 1, pA2 = -Log(Ki); for mMC4R Antagonist pA2 ± SEM / mMC4R pA2: Schild analysis; for mMC4R pA2: Table 5
mMC3R [6] = target: T1, mMC3R; experiment: AlphaScreen cAMP agonist assay at mMC3R; conditions: for mMC3R Agonist, percent of the NDP-MSH maximal positive control: Table 1, @ 100 μM
mMC1R = mMC1R (Mus musculus, UniProt Q01727); experiment: AlphaScreen cAMP agonist assay at mMC1R; conditions: for mMC1R percent of the NDP-MSH maximal positive control: Table 2, @ 100 μM
mMC1R, sequence (Q01727 whole entry): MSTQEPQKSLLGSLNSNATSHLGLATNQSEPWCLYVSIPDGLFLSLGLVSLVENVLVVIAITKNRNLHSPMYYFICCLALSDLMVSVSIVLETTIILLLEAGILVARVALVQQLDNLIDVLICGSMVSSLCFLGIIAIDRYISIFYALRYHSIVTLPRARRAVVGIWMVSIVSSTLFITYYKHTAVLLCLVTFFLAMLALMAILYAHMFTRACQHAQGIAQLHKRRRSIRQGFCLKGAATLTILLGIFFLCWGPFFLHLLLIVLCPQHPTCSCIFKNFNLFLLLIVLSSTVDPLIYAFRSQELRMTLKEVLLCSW

mMC5R = mMC5R (Mus musculus, UniProt P41149); experiment: AlphaScreen cAMP agonist assay at mMC5R
mMC5R, sequence (P41149 whole entry): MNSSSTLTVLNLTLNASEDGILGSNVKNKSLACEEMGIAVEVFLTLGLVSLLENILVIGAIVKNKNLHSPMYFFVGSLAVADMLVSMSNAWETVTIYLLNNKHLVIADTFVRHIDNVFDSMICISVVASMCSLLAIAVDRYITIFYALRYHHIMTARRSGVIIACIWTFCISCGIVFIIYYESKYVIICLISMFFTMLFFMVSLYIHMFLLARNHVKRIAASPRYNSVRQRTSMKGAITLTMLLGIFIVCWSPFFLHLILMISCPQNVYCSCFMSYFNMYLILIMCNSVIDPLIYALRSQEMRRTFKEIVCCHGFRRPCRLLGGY

mMC3R [7] = target: T1, mMC3R; set-up: expressed in transfected cells; conditions: Joseph et al. 2003; read-out: reported stimulation potency at the mMC3R; cited from earlier work
mMC4R [8] = target: T2, mMC4R; set-up: expressed in transfected cells; conditions: Joseph et al. 2003; read-out: reported stimulation potency at the mMC4R; cited from earlier work

Molecule: CC(=O)N[C@@H](CCCNC(=N)N)C(=O)N[C@@H](CCCNC(=N)N)C(=O)N[C@H](Cc1ccc(I)cc1)C(=O)N[C@@H](Cc1csc2ccccc12)C(N)=O [SKY4-48-10, Ac-Arg-Arg-(pI)DPhe-3Bal-NH2]
mMC3R Antagonist pA2 ± SEM (mMC3R [1]): Full Agonist
mMC3R (IC50) Fold Diff. (mMC3R [2]): -52
activation at 100 µM (mMC4R [3]): 24%
mMC4R (IC50) Fold Diff. (mMC4R [4]): 1

Molecule: CC(=O)N[C@@H](Cc1ccc2ccccc2c1)C(=O)N[C@@H](CCCNC(=N)N)C(=O)N[C@H](Cc1ccc(I)cc1)C(=O)N[C@H](Cc1ccc2ccccc2c1)C(N)=O [SKY4-48-48, Ac-Nal(2′)-Arg-(pI)DPhe-DNal(2′)-NH2] (Ac-[2Nal]R[dPhe(4-I)][d2Nal]-NH2)
mMC3R Antagonist pA2 ± SEM (mMC3R [1]): No Activity
mMC4R Antagonist pA2 ± SEM (mMC4R [5]): No Activity
mMC3R Agonist, percent of the NDP-MSH maximal positive control (mMC3R [6]): 31% @ 100 μM
mMC1R percent of the NDP-MSH maximal positive control (mMC1R): 53% @ 100 μM
activation at 100 µM (mMC5R; read-out: percent of the NDP-MSH maximal positive control, Table 2): 40%

Molecule: CC(=O)N[C@@H](Cc1ccccc1)C(=O)N[C@@H](CCCNC(=N)N)C(=O)N[C@H](Cc1ccc(I)cc1)C(=O)N1Cc2ccccc2C[C@H]1C(N)=O [SKY4-48-23, Ac-Phe-Arg-(pI)DPhe-Tic-NH2] (Ac-FR[dPhe(4-I)][Tic]-NH2)
mMC3R Antagonist pA2 ± SEM (mMC3R [1]): Full Agonist
mMC3R (IC50) Fold Diff. (mMC3R [2]): -20
mMC4R (IC50) Fold Diff. (mMC4R [4]): 1

Molecule: CC(=O)N[C@H](Cc1c[nH]c2ccccc12)C(=O)N[C@H](CCCNC(=N)N)C(=O)N[C@@H](Cc1ccccc1)C(=O)N[C@H](Cc1c[nH]cn1)C(N)=O [SKY5-121, Ac-DTrp-DArg-Phe-DHis-NH2] (Ac-[dW][dR]F[dH]-NH2)
mMC3R pA2 (mMC3R [1]): pA2 = No Activity
mMC4R pA2 (mMC4R [5]): pA2 = No Activity
EC50 (mMC3R [6]): > 100 µM
EC50 (mMC4R [3]): > 100 µM
EC50 (mMC1R): > 100 µM
mMC5R percent of the NDP-MSH maximal positive control (mMC5R; Table 5, @ 100 μM): 29% @ 100 μM

Molecule: CC(=O)N[C@@H](CCCNC(=N)N)C(=O)N[C@@H](CCCNC(=N)N)C(=O)N[C@H](Cc1ccc(I)cc1)C(=O)N[C@@H](Cc1ccc(-c2ccccc2)cc1)C(N)=O [SKY4-48-2, Ac-Arg-Arg-(pI)DPhe-Bip-NH2]
antagonist pA2 at the mMC4R (mMC4R [5]): 5.8
mMC3R Agonist, percent of the NDP-MSH maximal positive control (mMC3R [6]): 45% @ 100 μM
activation at 100 µM (mMC4R [3]): 32%
mMC1R percent of the NDP-MSH maximal positive control (mMC1R): 44% @ 100 μM

Molecule: Ac-Ser-Tyr-Ser-Nle-Glu-His-Arg-Phe-Phe-Gly-Lys-Pro-Val-NH2 (Ac-SYS[Nle]EHRFFGKPV-NH2; SMILES CCCC[C@H](NC(=O)[C@H](CO)NC(=O)[C@H](Cc1ccc(O)cc1)NC(=O)[C@H](CO)NC(C)=O)C(=O)N[C@@H](CCC(=O)O)C(=O)N[C@@H](Cc1c[nH]cn1)C(=O)N[C@@H](CCCNC(=N)N)C(=O)N[C@@H](Cc1ccccc1)C(=O)N[C@@H](Cc1ccccc1)C(=O)NCC(=O)N[C@@H](CCCCN)C(=O)N1CCC[C@H]1C(=O)N[C@H](C(N)=O)C(C)C) [chimeric NDP-MSH/AGRP peptide]
EC50 (mMC3R [7]): 0.48 µM
EC50 (mMC4R [8]): 0.93 µM

Results, then the molecule that gave them:

mMC3R Antagonist pA2 ± SEM (mMC3R [1]): Full Agonist
mMC3R (IC50) Fold Diff. (mMC3R [2]): -8
mMC4R (IC50) Fold Diff. (mMC4R [4]): 4
Molecule: CC(=O)N[C@@H](CCCNC(=N)N)C(=O)N[C@@H](CCCNC(=N)N)C(=O)N[C@H](Cc1ccc(I)cc1)C(=O)N[C@@H](Cc1ccccc1)C(N)=O [SKY4-48-26, Ac-Arg-Arg-(pI)DPhe-Phe-NH2]

mMC3R pA2 (mMC3R [1]): Full Agonist
mMC4R pA2 (mMC4R [5]): pA2 = No Activity
EC50 (mMC3R [6]): 21 µM
agonist activity at the mMC3R in words (mMC3R [6]; up to 100 μM): micromolar agonists
EC50 (mMC4R [3]): > 100 µM
agonist activity at the mMC4R in words (mMC4R [3]; up to 100 μM): no agonist activity
EC50 (mMC1R): 1.3 µM
agonist / inverse agonist activity at the mMC1R in words (mMC1R; up to 100 μM): micromolar agonists
EC50 (mMC5R): 21 µM
agonist activity at the mMC5R in words (mMC5R; up to 100 μM): micromolar agonists
Molecule: CC(=O)N[C@@H](Cc1c[nH]cn1)C(=O)N[C@@H](CCCNC(=N)N)C(=O)N[C@H](Cc1ccccc1)C(=O)N[C@@H](Cc1c[nH]c2ccccc12)C(N)=O [SKY5-146-6, Ac-His-Arg-DPhe-Trp-NH2] (Ac-HR[dF]W-NH2)

mMC3R Antagonist pA2 ± SEM (mMC3R [1]): No Activity
mMC4R Antagonist pA2 ± SEM (mMC4R [5]): No Activity
mMC3R Agonist, percent of the NDP-MSH maximal positive control (mMC3R [6]): 34% @ 100 μM
mMC4R Agonist, percent of the NDP-MSH maximal positive control (mMC4R [3]; Table 1, @ 100 μM): 38% @ 100 μM
mMC1R percent of the NDP-MSH maximal positive control (mMC1R): 36% @ 100 μM
percent of the NDP-MSH maximal positive control, Table 2 (mMC5R; Table 2, @ 100 μM): 41% @ 100 μM
Molecule: Ac-3Bal-Arg-(pI)DPhe-DNal(2′)-NH2 (Ac-[Bta]R[dPhe(4-I)][d2Nal]-NH2) [SKY4-48-45]
